The source made the active and inactive calls. The rule behind the calls is not given here.
Each compound was assayed on Escherichia coli (assay: Induction of Escherichia coli pUC19 DNA photocleavage assessed as conversion of supercoiled DNA to linear and nicked form of DNA at 10 uM treated for 60 mins followed by irradiation at 700 nm for 60 mins by agarose gel electrophoresis (reference value: 3%)). Details: not given.

Activity [%]	Structure (SMILES)
34	CC1(C)C(/C=C/C=C/C=C2/N(CCC[N+](C)(C)C)c3ccc4ccccc4c3C2(C)C)=[N+](CCC[N+](C)(C)C)c2ccc3ccccc3c21
49	CN1/C(=C/C=C(Br)/C=C/C2=[N+](C)c3ccc4ccccc4c3C2(C)C)C(C)(C)c2c1ccc1ccccc21
33	CN1/C(=C/C=C(Cl)/C=C/C2=[N+](C)c3ccc4ccccc4c3C2(C)C)C(C)(C)c2c1ccc1ccccc21
2	CC1(C)C(/C=C/C(Cl)=C/C=C2/N(CCCc3ccccc3)c3ccc4ccccc4c3C2(C)C)=[N+](CCCc2ccccc2)c2ccc3ccccc3c21
67	CC1(C)C(/C=C/C(Cl)=C/C=C2/N(CCC[N+](C)(C)C)c3ccc4ccccc4c3C2(C)C)=[N+](CCC[N+](C)(C)C)c2ccc3ccccc3c21
59	CC1(C)C(/C=C/C(Br)=C/C=C2/N(CCC[N+](C)(C)C)c3ccc4ccccc4c3C2(C)C)=[N+](CCC[N+](C)(C)C)c2ccc3ccccc3c21
18	CN1/C(=C/C=C/C=C/C2=[N+](C)c3ccc4ccccc4c3C2(C)C)C(C)(C)c2c1ccc1ccccc21

The compounds below were run on DNA (assay: Binding affinity to calf thymus DNA at 10 uM using sequential DNA addition followed by 15 mins incubation under dark condition by UV-visible spectroscopy). Details: Bos taurus.
Assay type: nucleic-acid assay

Activity	Structure (SMILES)
Active	CC1(C)C(/C=C/C=C/C=C2/N(CCC[N+](C)(C)C)c3ccc4ccccc4c3C2(C)C)=[N+](CCC[N+](C)(C)C)c2ccc3ccccc3c21
Active	CN1/C(=C/C=C(Br)/C=C/C2=[N+](C)c3ccc4ccccc4c3C2(C)C)C(C)(C)c2c1ccc1ccccc21
Active	CN1/C(=C/C=C(Cl)/C=C/C2=[N+](C)c3ccc4ccccc4c3C2(C)C)C(C)(C)c2c1ccc1ccccc21
Active	CC1(C)C(/C=C/C(Cl)=C/C=C2/N(CCC[N+](C)(C)C)c3ccc4ccccc4c3C2(C)C)=[N+](CCC[N+](C)(C)C)c2ccc3ccccc3c21
Active	CC1(C)C(/C=C/C(Br)=C/C=C2/N(CCC[N+](C)(C)C)c3ccc4ccccc4c3C2(C)C)=[N+](CCC[N+](C)(C)C)c2ccc3ccccc3c21
Active	CN1/C(=C/C=C/C=C/C2=[N+](C)c3ccc4ccccc4c3C2(C)C)C(C)(C)c2c1ccc1ccccc21

Each compound was assayed on DNA (assay: Binding affinity to calf thymus DNA at 10 uM incubated for 60 mins under dark condition by fluorescence emission spectra analysis). Details: Bos taurus.
Assay type: nucleic-acid assay

Activity	Structure (SMILES)
Active	CC1(C)C(/C=C/C=C/C=C2/N(CCC[N+](C)(C)C)c3ccc4ccccc4c3C2(C)C)=[N+](CCC[N+](C)(C)C)c2ccc3ccccc3c21
Active	CN1/C(=C/C=C(Br)/C=C/C2=[N+](C)c3ccc4ccccc4c3C2(C)C)C(C)(C)c2c1ccc1ccccc21
Active	CN1/C(=C/C=C(Cl)/C=C/C2=[N+](C)c3ccc4ccccc4c3C2(C)C)C(C)(C)c2c1ccc1ccccc21
Active	CC1(C)C(/C=C/C(Cl)=C/C=C2/N(CCCc3ccccc3)c3ccc4ccccc4c3C2(C)C)=[N+](CCCc2ccccc2)c2ccc3ccccc3c21
Active	CC1(C)C(/C=C/C(Cl)=C/C=C2/N(CCC[N+](C)(C)C)c3ccc4ccccc4c3C2(C)C)=[N+](CCC[N+](C)(C)C)c2ccc3ccccc3c21
Active	CC1(C)C(/C=C/C(Br)=C/C=C2/N(CCC[N+](C)(C)C)c3ccc4ccccc4c3C2(C)C)=[N+](CCC[N+](C)(C)C)c2ccc3ccccc3c21
Active	CN1/C(=C/C=C/C=C/C2=[N+](C)c3ccc4ccccc4c3C2(C)C)C(C)(C)c2c1ccc1ccccc21

These compounds were tested on Escherichia coli (assay: Induction of Escherichia coli pUC19 DNA photocleavage assessed as conversion of supercoiled DNA to linear and nicked form of DNA at 10 uM treated for 60 mins followed by irradiation at 588 nm for 60 mins by agarose gel electrophoresis (reference value: 15%)). Details: not given.

Activity [%]	Structure (SMILES)
20	CC1(C)C(/C=C/C=C/C=C2/N(CCC[N+](C)(C)C)c3ccc4ccccc4c3C2(C)C)=[N+](CCC[N+](C)(C)C)c2ccc3ccccc3c21
55	CN1/C(=C/C=C(Br)/C=C/C2=[N+](C)c3ccc4ccccc4c3C2(C)C)C(C)(C)c2c1ccc1ccccc21
46	CN1/C(=C/C=C(Cl)/C=C/C2=[N+](C)c3ccc4ccccc4c3C2(C)C)C(C)(C)c2c1ccc1ccccc21
13	CC1(C)C(/C=C/C(Cl)=C/C=C2/N(CCCc3ccccc3)c3ccc4ccccc4c3C2(C)C)=[N+](CCCc2ccccc2)c2ccc3ccccc3c21
55	CC1(C)C(/C=C/C(Cl)=C/C=C2/N(CCC[N+](C)(C)C)c3ccc4ccccc4c3C2(C)C)=[N+](CCC[N+](C)(C)C)c2ccc3ccccc3c21
47	CC1(C)C(/C=C/C(Br)=C/C=C2/N(CCC[N+](C)(C)C)c3ccc4ccccc4c3C2(C)C)=[N+](CCC[N+](C)(C)C)c2ccc3ccccc3c21
25	CN1/C(=C/C=C/C=C/C2=[N+](C)c3ccc4ccccc4c3C2(C)C)C(C)(C)c2c1ccc1ccccc21

The compounds below were run on Escherichia coli (assay: Induction of Escherichia coli pUC19 DNA cleavage assessed as conversion of supercoiled DNA to linear and nicked form of DNA at 10 uM after 60 mins by agarose gel electrophoresis). Details: not given.

Activity [%]	Structure (SMILES)
1	CC1(C)C(/C=C/C=C/C=C2/N(CCC[N+](C)(C)C)c3ccc4ccccc4c3C2(C)C)=[N+](CCC[N+](C)(C)C)c2ccc3ccccc3c21
3	CN1/C(=C/C=C(Br)/C=C/C2=[N+](C)c3ccc4ccccc4c3C2(C)C)C(C)(C)c2c1ccc1ccccc21
2	CN1/C(=C/C=C(Cl)/C=C/C2=[N+](C)c3ccc4ccccc4c3C2(C)C)C(C)(C)c2c1ccc1ccccc21
4	CC1(C)C(/C=C/C(Cl)=C/C=C2/N(CCCc3ccccc3)c3ccc4ccccc4c3C2(C)C)=[N+](CCCc2ccccc2)c2ccc3ccccc3c21
5	CC1(C)C(/C=C/C(Cl)=C/C=C2/N(CCC[N+](C)(C)C)c3ccc4ccccc4c3C2(C)C)=[N+](CCC[N+](C)(C)C)c2ccc3ccccc3c21
7	CC1(C)C(/C=C/C(Br)=C/C=C2/N(CCC[N+](C)(C)C)c3ccc4ccccc4c3C2(C)C)=[N+](CCC[N+](C)(C)C)c2ccc3ccccc3c21
2	CN1/C(=C/C=C/C=C/C2=[N+](C)c3ccc4ccccc4c3C2(C)C)C(C)(C)c2c1ccc1ccccc21

What follows are compounds tested on Escherichia coli (assay: Induction of Escherichia coli pUC19 DNA photocleavage assessed as conversion of supercoiled DNA to linear and nicked form of DNA at 10 uM treated for 60 mins followed by irradiation at 623 nm for 60 mins by agarose gel electrophoresis (reference value: 10%)). Details: not given.

Activity [%]	Structure (SMILES)
41	CC1(C)C(/C=C/C=C/C=C2/N(CCC[N+](C)(C)C)c3ccc4ccccc4c3C2(C)C)=[N+](CCC[N+](C)(C)C)c2ccc3ccccc3c21
46	CN1/C(=C/C=C(Br)/C=C/C2=[N+](C)c3ccc4ccccc4c3C2(C)C)C(C)(C)c2c1ccc1ccccc21
42	CN1/C(=C/C=C(Cl)/C=C/C2=[N+](C)c3ccc4ccccc4c3C2(C)C)C(C)(C)c2c1ccc1ccccc21
8	CC1(C)C(/C=C/C(Cl)=C/C=C2/N(CCCc3ccccc3)c3ccc4ccccc4c3C2(C)C)=[N+](CCCc2ccccc2)c2ccc3ccccc3c21
48	CC1(C)C(/C=C/C(Cl)=C/C=C2/N(CCC[N+](C)(C)C)c3ccc4ccccc4c3C2(C)C)=[N+](CCC[N+](C)(C)C)c2ccc3ccccc3c21
56	CC1(C)C(/C=C/C(Br)=C/C=C2/N(CCC[N+](C)(C)C)c3ccc4ccccc4c3C2(C)C)=[N+](CCC[N+](C)(C)C)c2ccc3ccccc3c21
29	CN1/C(=C/C=C/C=C/C2=[N+](C)c3ccc4ccccc4c3C2(C)C)C(C)(C)c2c1ccc1ccccc21

What follows are compounds tested on Escherichia coli (assay: Induction of Escherichia coli pUC19 DNA photocleavage at 10 uM treated for 60 mins followed by irradiation at 575 nm for 60 mins by agarose gel electrophoresis in presence of sodium azide). Details: not given.

Activity	Structure (SMILES)
inactive	CC1(C)C(/C=C/C=C/C=C2/N(CCC[N+](C)(C)C)c3ccc4ccccc4c3C2(C)C)=[N+](CCC[N+](C)(C)C)c2ccc3ccccc3c21
inactive	CN1/C(=C/C=C(Br)/C=C/C2=[N+](C)c3ccc4ccccc4c3C2(C)C)C(C)(C)c2c1ccc1ccccc21
inactive	CN1/C(=C/C=C(Cl)/C=C/C2=[N+](C)c3ccc4ccccc4c3C2(C)C)C(C)(C)c2c1ccc1ccccc21
inactive	CC1(C)C(/C=C/C(Cl)=C/C=C2/N(CCC[N+](C)(C)C)c3ccc4ccccc4c3C2(C)C)=[N+](CCC[N+](C)(C)C)c2ccc3ccccc3c21
inactive	CC1(C)C(/C=C/C(Br)=C/C=C2/N(CCC[N+](C)(C)C)c3ccc4ccccc4c3C2(C)C)=[N+](CCC[N+](C)(C)C)c2ccc3ccccc3c21
inactive	CN1/C(=C/C=C/C=C/C2=[N+](C)c3ccc4ccccc4c3C2(C)C)C(C)(C)c2c1ccc1ccccc21

The compounds below were run on Escherichia coli (assay: Induction of Escherichia coli pUC19 DNA photocleavage assessed as conversion of supercoiled DNA to linear and nicked form of DNA after 60 mins followed by irradiation at 575 nm for 60 mins by agarose gel electrophoresis). Details: not given.

Activity	Structure (SMILES)
Dose-dependent effect	CN1/C(=C/C=C(Br)/C=C/C2=[N+](C)c3ccc4ccccc4c3C2(C)C)C(C)(C)c2c1ccc1ccccc21
Dose-dependent effect	CN1/C(=C/C=C(Cl)/C=C/C2=[N+](C)c3ccc4ccccc4c3C2(C)C)C(C)(C)c2c1ccc1ccccc21
Dose-dependent effect	CC1(C)C(/C=C/C(Cl)=C/C=C2/N(CCC[N+](C)(C)C)c3ccc4ccccc4c3C2(C)C)=[N+](CCC[N+](C)(C)C)c2ccc3ccccc3c21
Dose-dependent effect	CC1(C)C(/C=C/C(Br)=C/C=C2/N(CCC[N+](C)(C)C)c3ccc4ccccc4c3C2(C)C)=[N+](CCC[N+](C)(C)C)c2ccc3ccccc3c21

The compounds below were run on DNA (assay: Binding affinity to calf thymus DNA at 10 uM after 60 mins by UV-visible absorption spectra analysis). Details: Bos taurus.
Assay type: nucleic-acid assay

Activity	Structure (SMILES)
Active	CC1(C)C(/C=C/C=C/C=C2/N(CCC[N+](C)(C)C)c3ccc4ccccc4c3C2(C)C)=[N+](CCC[N+](C)(C)C)c2ccc3ccccc3c21
Active	CN1/C(=C/C=C(Br)/C=C/C2=[N+](C)c3ccc4ccccc4c3C2(C)C)C(C)(C)c2c1ccc1ccccc21
Active	CN1/C(=C/C=C(Cl)/C=C/C2=[N+](C)c3ccc4ccccc4c3C2(C)C)C(C)(C)c2c1ccc1ccccc21
Active	CC1(C)C(/C=C/C(Cl)=C/C=C2/N(CCC[N+](C)(C)C)c3ccc4ccccc4c3C2(C)C)=[N+](CCC[N+](C)(C)C)c2ccc3ccccc3c21
Active	CC1(C)C(/C=C/C(Br)=C/C=C2/N(CCC[N+](C)(C)C)c3ccc4ccccc4c3C2(C)C)=[N+](CCC[N+](C)(C)C)c2ccc3ccccc3c21
Active	CN1/C(=C/C=C/C=C/C2=[N+](C)c3ccc4ccccc4c3C2(C)C)C(C)(C)c2c1ccc1ccccc21

What follows are compounds tested on Escherichia coli (assay: Induction of Escherichia coli pUC19 DNA photocleavage at 10 uM treated for 60 mins followed by irradiation at 575 nm for 60 mins by agarose gel electrophoresis in presence of sodium benzoate). Details: not given.

Activity	Structure (SMILES)
inactive	CC1(C)C(/C=C/C=C/C=C2/N(CCC[N+](C)(C)C)c3ccc4ccccc4c3C2(C)C)=[N+](CCC[N+](C)(C)C)c2ccc3ccccc3c21
inactive	CN1/C(=C/C=C(Br)/C=C/C2=[N+](C)c3ccc4ccccc4c3C2(C)C)C(C)(C)c2c1ccc1ccccc21
inactive	CN1/C(=C/C=C(Cl)/C=C/C2=[N+](C)c3ccc4ccccc4c3C2(C)C)C(C)(C)c2c1ccc1ccccc21
inactive	CC1(C)C(/C=C/C(Cl)=C/C=C2/N(CCC[N+](C)(C)C)c3ccc4ccccc4c3C2(C)C)=[N+](CCC[N+](C)(C)C)c2ccc3ccccc3c21
inactive	CC1(C)C(/C=C/C(Br)=C/C=C2/N(CCC[N+](C)(C)C)c3ccc4ccccc4c3C2(C)C)=[N+](CCC[N+](C)(C)C)c2ccc3ccccc3c21
inactive	CN1/C(=C/C=C/C=C/C2=[N+](C)c3ccc4ccccc4c3C2(C)C)C(C)(C)c2c1ccc1ccccc21

These compounds were tested on Escherichia coli (assay: Induction of Escherichia coli pUC19 DNA photocleavage assessed as conversion of supercoiled DNA to linear and nicked form of DNA at 10 uM treated for 60 mins followed by irradiation at 575 nm for 60 mins by agarose gel electrophoresis (reference value: 6 +/- 2%)). Details: not given.

Activity [%]	Structure (SMILES)
47	CC1(C)C(/C=C/C=C/C=C2/N(CCC[N+](C)(C)C)c3ccc4ccccc4c3C2(C)C)=[N+](CCC[N+](C)(C)C)c2ccc3ccccc3c21
86	CN1/C(=C/C=C(Br)/C=C/C2=[N+](C)c3ccc4ccccc4c3C2(C)C)C(C)(C)c2c1ccc1ccccc21
83	CN1/C(=C/C=C(Cl)/C=C/C2=[N+](C)c3ccc4ccccc4c3C2(C)C)C(C)(C)c2c1ccc1ccccc21
13	CC1(C)C(/C=C/C(Cl)=C/C=C2/N(CCCc3ccccc3)c3ccc4ccccc4c3C2(C)C)=[N+](CCCc2ccccc2)c2ccc3ccccc3c21
91	CC1(C)C(/C=C/C(Cl)=C/C=C2/N(CCC[N+](C)(C)C)c3ccc4ccccc4c3C2(C)C)=[N+](CCC[N+](C)(C)C)c2ccc3ccccc3c21
78	CC1(C)C(/C=C/C(Br)=C/C=C2/N(CCC[N+](C)(C)C)c3ccc4ccccc4c3C2(C)C)=[N+](CCC[N+](C)(C)C)c2ccc3ccccc3c21
59	CN1/C(=C/C=C/C=C/C2=[N+](C)c3ccc4ccccc4c3C2(C)C)C(C)(C)c2c1ccc1ccccc21

Source: ChEMBL document CHEMBL3097998, “Oxidative cleavage of DNA by pentamethine carbocyanine dyes irradiated with long-wavelength visible light” (Bioorg Med Chem Lett, 2014)
